Broadly, the Ki is a dissociation constant, usually derived from enzyme kinetics or from competition with a known ligand. High values mean lower affinity, low ones higher affinity. The term EC50 denotes the concentration that produces a half-maximal response.

The results in this text go back to paper PMC10584882 (Communications Biology, 2023).

In one experiment the target is T1, human CatK (Homo sapiens, UniProt P43235).
T1 construct: made in house
T1 sequence (P43235 115-329): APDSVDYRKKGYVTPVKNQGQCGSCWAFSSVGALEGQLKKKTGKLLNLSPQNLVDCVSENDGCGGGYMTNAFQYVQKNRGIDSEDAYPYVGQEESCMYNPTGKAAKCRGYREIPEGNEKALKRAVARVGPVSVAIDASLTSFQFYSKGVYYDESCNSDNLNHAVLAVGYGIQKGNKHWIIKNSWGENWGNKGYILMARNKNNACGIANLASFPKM
Briefly: Cathepsin inhibition test, CatK. In kind it is biochemical. Conditions: Fig. S3 panel a, single replicates.

In a further experiment the target is T2, CatL (Homo sapiens, UniProt P07711).
T2 construct: made in house
Briefly: Cathepsin inhibition test, CatL. In kind it is biochemical. The following applies: for Residual activity (Vi/V0): Fig. S3 panel b, single replicates.

A further experiment has as its target T3, human CatV (Homo sapiens, UniProt O60911).
T3 construct: made in house
Briefly: Cathepsin inhibition test, CatV. In kind it is biochemical. Conditions: Fig. S3 panel c, single replicates.

The subject of another experiment is SARS-CoV-2-GFP. Briefly: microbe, parasite or virus in culture. It counts as cell-based. Conditions: mean with standard error, read-out: VERO E6 EC50.
The mark [1] stands for this setting: inhibitor 0.105 nM, 0.000105 µM.
Setting [2] is: inhibitor 0.189 nM, 0.000189 µM.
Where [3] appears, read: inhibitor 0.612 nM, 0.000612 µM.
Setting [4] is: inhibitor 1.103 nM, 0.001103 µM.
Where [5] appears, read: inhibitor 1.985 nM, 0.001985 µM.
The mark [6] stands for this setting: inhibitor 3.572 nM, 0.003572 µM.
Setting [7] is: inhibitor 11.547 nM, 0.011547 µM.
Setting [8] is: inhibitor 20.833 nM, 0.020833 µM.

“And” between values parts separate entries of the source, which are not always exact repeats. Equal values may be shown once.

T2 sequence (P07711 114-333): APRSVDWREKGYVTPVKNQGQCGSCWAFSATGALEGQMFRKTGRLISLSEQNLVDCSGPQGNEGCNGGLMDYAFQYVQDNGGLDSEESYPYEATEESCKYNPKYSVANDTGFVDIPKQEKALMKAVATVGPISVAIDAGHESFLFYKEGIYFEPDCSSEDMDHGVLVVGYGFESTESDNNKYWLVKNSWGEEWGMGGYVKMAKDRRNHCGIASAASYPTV
T3 sequence (O60911 114-334): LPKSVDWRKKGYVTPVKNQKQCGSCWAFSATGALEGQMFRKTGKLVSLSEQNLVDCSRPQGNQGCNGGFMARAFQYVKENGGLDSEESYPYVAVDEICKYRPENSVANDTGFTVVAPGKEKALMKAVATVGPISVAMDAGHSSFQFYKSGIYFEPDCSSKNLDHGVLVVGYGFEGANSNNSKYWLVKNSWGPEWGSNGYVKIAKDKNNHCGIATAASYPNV

As to `CC(C)C[C@H](NC(=O)OCc1ccccc1)C(=O)N[C@@H](C[C@@H]1CCNC1=O)C(O)S(=O)(=O)[O-].[Na+]` (stereo partly drawn) [GC376], the “Residual activity (Vi/V0)” value at human CatK (inhibitor 0.010 nM, 10 pM) was 1 and 1.168 and 0.9786 and 1.164 and 0.971; at human CatK (inhibitor 0.018 nM, 18 pM), 1.045 and 0.9537 and 0.8787 and 1.068 and 0.891; at human CatK (inhibitor 0.032 nM, 32 pM), 1.008 and 0.9541 and 1.052 and 1.097 and 0.9731; on human CatK (inhibitor 0.058 nM, 58 pM), 0.9618 and 1.104 and 1; on human CatK (setting [1]) it was 0.7126 and 0.7756 and 0.8857 and 0.9962 and 0.9154; at human CatK (setting [2]) it was 0.687 and 0.7701 and 0.8381 and 0.9358 and 0.9354. Also, the “Residual activity (Vi/V0)” value on human CatK (inhibitor 0.340 nM, 0.00034 µM) is 0.5857 and 0.5656 and 0.9002 and 0.8293 and 0.7129; at human CatK (setting [3]) it was 0.5454 and 0.3889 and 0.8833 and 0.6839 and 0.5394; on human CatK (setting [4]), 0.3854 and 0.2819 and 0.6231 and 0.4604 and 0.4262; on human CatK (setting [5]), 0.2545 and 0.4374 and 0.3426 and 0.223; on human CatK (setting [6]), 0.1189 and 0.1895 and 0.3494 and 0.2326 and 0.2097; on human CatK (inhibitor 6.430 nM, 0.00643 µM) it was 0.1182 and 0.1529 (2×) and 0.2134 and 0.1788. Also, the “Residual activity (Vi/V0)” value is 0.09726 and 0.09205 and 0.1617 and 0.0793 and 0.08002 at human CatK (setting [7]); -0.01061 and 0.0635 and 0.09619 and 0.03724 and 0.04497 on human CatK (setting [8]); 0.05483 and -0.02967 and 0.05665 and 0.01671 at human CatK (inhibitor 37.500 nM, 0.0375 µM); 0.8855 and 0.7968 and 0.4672 and 0.774 and 0.5436 and 0.6444 and 0.6384 and 0.5984 and 0.8706 and 0.7685 on CatL (setting [2]); 0.6489 and 0.6117 and 0.2724 and 0.4771 and 0.3326 and 0.4189 and 0.397 and 0.4003 and 0.6575 and 0.5962 on CatL (inhibitor 0.340 nM, 0.00034 µM); 0.6544 and 0.4591 and 0.279 and 0.4155 and 0.2277 and 0.7268 and 0.6794 and 0.7031 and 0.6487 and 0.6608 on CatL (setting [3]). In addition, the “Residual activity (Vi/V0)” value was 0.448 and 0.2903 and 0.222 and 0.2673 and 0.2098 and 0.5439 and 0.5159 and 0.5223 and 0.4578 and 0.481 at CatL (setting [4]); 0.2589 and 0.1857 and 0.1649 and 0.2093 and 0.1658 and 0.3522 and 0.3323 and 0.3518 and 0.2487 and 0.2662 at CatL (setting [5]); 0.2062 and 0.1428 and 0.1169 and 0.1623 and 0.08981 and 0.207 and 0.1929 and 0.2019 and 0.196 and 0.2135 on CatL (setting [6]); 0.139 and 0.09925 and 0.07105 and 0.118 and 0.08137 and 0.1289 and 0.127 and 0.1302 and 0.1295 and 0.1384 on CatL (inhibitor 6.430 nM, 0.00643 µM); 0.09523 and 0.05909 and 0.04564 and 0.05812 and 0.04092 and 0.07914 and 0.07029 and 0.07354 and 0.08822 and 0.09606 on CatL (setting [7]); 0.05198 and 0.03378 and 0.02298 and 0.02931 and 0.02488 and 0.02998 and 0.02815 and 0.0288 and 0.05176 and 0.05151 at CatL (setting [8]). In addition, the “Residual activity (Vi/V0)” value on CatL (inhibitor 37.500 nM, 0.0375 µM) is 0.02351 and 0.02002 and 0.01036 (2×) and 0.01453 and 0.0114 and 0.01064 and 0.01075 and 0.02418 and 0.02491; at human CatV (inhibitor 0.010 nM, 10 pM) it was 1.0857 and 1.077 and 0.9774 and 0.8982 and 0.991 and 0.8512 and 1.1 and 0.8679; at human CatV (inhibitor 0.018 nM, 18 pM), 1.336 and 1.266 and 0.9662 and 0.9302 and 1.04 and 0.8965 and 1.124 and 0.9597; at human CatV (inhibitor 0.032 nM, 32 pM), 1.039 and 0.8981 and 0.9517 and 0.9088 and 1.019 and 0.9688 and 1.292 and 0.8604; at human CatV (inhibitor 0.058 nM, 58 pM), 0.6518 and 0.5159 and 0.8896 and 0.8461 and 0.9826 and 0.9436 and 1.221 and 0.8427; on human CatV (setting [1]) it was 0.9622 and 0.7389 and 0.9442 and 0.8081 and 0.8801 and 0.8142 and 1.285 and 0.7581. The “Residual activity (Vi/V0)” value was 0.6972 and 0.4428 and 0.8137 and 0.7094 and 0.8934 and 0.7434 and 1.066 and 0.6389 at human CatV (setting [2]); 0.6247 and 0.3497 and 0.4956 and 0.4527 and 0.4873 and 0.5939 and 0.9738 and 0.4752 at human CatV (inhibitor 0.340 nM, 0.00034 µM); 0.3307 and 0.2457 and 0.4411 and 0.4505 and 0.4917 and 0.4681 and 0.5327 and 0.3674 on human CatV (setting [3]); 0.3031 and 0.1765 and 0.2948 and 0.2868 and 0.2798 and 0.3141 and 0.3564 and 0.2414 at human CatV (setting [4]).
`CC(C)C[C@H](NC(=O)OCc1ccccc1)C(=O)N[C@@H](CC1CCNC1=O)C(O)S(=O)(=O)O` (stereo partly drawn) [GC-376, reference compound]: the affinity on CatL (mean with standard deviation and 95% confidence interval, pH 5.5, 37 °C), expressed as Ki, was 0.259 nM. Moreover, the EC50 in the experiment with SARS-CoV-2-GFP was 1070 ± 278 nM.
